Reference: US10689362B2, “Quinoxaline compounds as type III receptor tyrosine kinase inhibitors” (Development Center for Biotechnology, priority 2016, dated 2020)

What was measured:
[1] = tested on: MV4-11 human acute myeloid leukemia cell with FLT3-ITD mutation; assay: MV4-11 cell proliferation assay (CellTiter-96); type: cell-based; conditions: Cytotoxicity, MV4-11 cells, 72 hours
Procedure: (§1) Inhibition of cell growth by compounds was measured using CellTiter™-96 assay. The cytotoxicity of compounds was evaluated in CSF-1-dependent M-NFS-60 mouse myeloid leukemia cell, FLT3 signal addicted MV4-11 human acute myeloid leukemia cell with FLT3-ITD mutation, c-KIT signal addicted Kasumi-1 human acute myeloid leukemia cell with c-KIT N822K activating mutation, and THP-1 human acute monocytic leukemia cell harboring NRAS G12D mutation.
(§2) The compounds disclosed herein were tested in MV4-11 cell proliferation assay to determine their cellular potency against FLT3 kinase. MV4-11 human acute myeloid leukemia cells harbor ligand-independent FLT3-ITD activating mutation, which render its proliferation FLT3-ITD dependent. Inhibition of FLT3 kinase activity will cause reduced growth and/or cell death. […] Cells were allowed to expand until reaching saturation at which point they were subcultured or harvested for assay use.
(§3) M-NFS-60, Kasumi-1, MV4-11 and THP-1 cells were seeded into 96-well plates at 2000, 64000, 6500, and 5000 cells/well, respectively, and incubated at 37° C., 5% CO2 overnight. Then, these seeded cells were treated with increasing concentrations of the test compounds and incubated for another 72 hours. At the end of the incubation, CellTiter96® AQueous One Solution Reagent (Promega) was added and incubated for 4 hours. Cell viability was determined by measuring absorbance at 490 nm using EMax® microplate reader (Molecular Devices).

[2] = tested on: Kasumi-1 human acute myeloid leukemia cell with c-KIT N822K activating mutation; assay: Kasumi-1 cell proliferation assay (CellTiter-96); type: cell-based; conditions: Cytotoxicity, Kasumi-1 cells, 72 hours
Procedure: as §1
as §2, with “Kasumi” for “MV4-11”, “c-KIT” for “FLT3”, “N822K c-KIT” for “FLT3-ITD”, “thus the cell” for “which render its”, “relied on c-KIT signal.” for “FLT3-ITD dependent.”
as §3

[3] = tested on: CSF-1-dependent M-NFS-60 mouse myeloid leukemia cell; assay: M-NFS-60 cell proliferation assay (CellTiter-96); type: cell-based; conditions: Cytotoxicity, M-NFS-60 cells, 72 hours
Procedure: as §1
The compounds disclosed herein were tested in M-NFS-60 cell proliferation assay to determine their cellular potency against CSF-1R. […] Inhibition of CSF-1R kinase activity will cause reduced growth and/or cell death. […] Cells were allowed to expand until reaching saturation at which point they were subcultured or harvested for assay use.
as §3

[4] = tested on: THP-1 human acute monocytic leukemia cell harboring NRAS G12D mutation; assay: THP-1 cell proliferation assay (counter screen, CellTiter-96); type: cell-based; conditions: Cytotoxicity, THP-1 cells (counter screen), 72 hours
Procedure: as §1
THP-1 human acute monocytic leukemia cells harbor NRAS G12D mutation, which renders cell proliferate independently of class III RTKs signal. […] Cells were allowed to expand until reaching saturation at which point they were subcultured or harvested for assay use.
as §3

PDGFRβ kinase = PDGFRβ kinase (Homo sapiens (Human), UniProt P09619); assay: PDGFRβ kinase assay (radiometric); type: biochemical; conditions: bound
Procedure: (§4) Inhibition of PDGFRβ kinase activity by a test compound disclosed herein was estimated by radiometric assay. Standard assay conditions were 10 ng of recombinant PDGFRβ (SignalChem) with 2 μg of substrate Poly-(Glu 4:Tyr 1) (sigma) in the assay buffer in kinase reaction buffer (10 mM MOPS pH 7.0, 0.21 mM EDTA, 0.5% glycerol, 0.001% Brij-35, 0.01 2-mercaptoehtanol, 1 mg/ml BSA, 10 mM MgCl2, 10 mM MnCl2, 10 μM ATP, 0.1 μCi per well [^33P]-ATP), in the presence of test compound (diluted in final concentration of 4% DMSO) or DMSO control, with a final volume of 25 μl for 60 minutes at 30° C. The reaction was stopped by adding 5 μl of 3% phosphoric acid solution. Total reaction solution was then harvested onto a filter plate (UniFilter-96 GF/B, PerkinElmer), and washed 20 times for 5 min with dH2O. 30 μl of MicroScint™-20 Cocktail (PerkinElmer) was added to dried plate. The plate was sealed and counted using a TopCount scintillation detector (PerkinElmer). […] The IC50 values of quinoxaline compounds of this invention against PDGFRβ kinase were determined using the GraphPad Prism 5 software.
(§5) The IC50 values for selected quinoxaline compounds of this invention against CSF-1R, c-KIT, FLT3, and PDGFRβ are summarized in Table 3.

c-KIT kinase = c-KIT kinase (Homo sapiens (Human), UniProt P10721); assay: c-KIT kinase assay (radiometric); type: biochemical
Procedure: as §4, with “of c-KIT” for “of PDGFRβ”, “were 20” for “were 10”, “recombinant c-Kit” for “recombinant PDGFRβ”, “well [^33P]-ATP,” for “well [^33P]-ATP),”, “against c-KIT” for “against PDGFRβ”
as §5

FLT3 kinase = FLT3 kinase (Homo sapiens (Human), UniProt P36888); assay: FLT3 kinase assay (radiometric); type: biochemical; conditions: bound
Procedure: Inhibition of FLT3 kinase activity by a test compound disclosed herein was estimated by radiometric assay. Standard assay conditions were 5 ng of recombinant FLT3 (Thermo Fisher) with 2 μg of substrate Poly-(Glu 4:Tyr 1) (sigma) in the assay buffer in kinase reaction buffer (10 mM MOPS pH 7.0, 0.21 mM EDTA, 0.5% glycerol, 0.001% Brij-35, 0.01 2-mercaptoehtanol, 1 mg/ml BSA, MgCl2 10 mM, 10 μM ATP, 0.1 μCi per well [^33P]-ATP, in the presence of test compound (diluted in final concentration of 4% DMSO) or DMSO control, with a final volume of 25 μl for 60 minutes at 30° C. The reaction was stopped by adding 5 μl of 3% phosphoric acid solution. Total reaction solution was then harvested onto a filter plate (UniFilter-96 GF/B, PerkinElmer), and washed 20 times for 5 min with dH2O. 30 μl of MicroScint™-20 Cocktail (PerkinElmer) was added to dried plate. The plate was sealed and counted using a TopCount scintillation detector (PerkinElmer). […] The IC50 values of quinoxaline compounds of this invention against FLT3 kinase were determined using the GraphPad Prism 5 software.
as §5

Chain of FLT3 kinase (P36888 27-993): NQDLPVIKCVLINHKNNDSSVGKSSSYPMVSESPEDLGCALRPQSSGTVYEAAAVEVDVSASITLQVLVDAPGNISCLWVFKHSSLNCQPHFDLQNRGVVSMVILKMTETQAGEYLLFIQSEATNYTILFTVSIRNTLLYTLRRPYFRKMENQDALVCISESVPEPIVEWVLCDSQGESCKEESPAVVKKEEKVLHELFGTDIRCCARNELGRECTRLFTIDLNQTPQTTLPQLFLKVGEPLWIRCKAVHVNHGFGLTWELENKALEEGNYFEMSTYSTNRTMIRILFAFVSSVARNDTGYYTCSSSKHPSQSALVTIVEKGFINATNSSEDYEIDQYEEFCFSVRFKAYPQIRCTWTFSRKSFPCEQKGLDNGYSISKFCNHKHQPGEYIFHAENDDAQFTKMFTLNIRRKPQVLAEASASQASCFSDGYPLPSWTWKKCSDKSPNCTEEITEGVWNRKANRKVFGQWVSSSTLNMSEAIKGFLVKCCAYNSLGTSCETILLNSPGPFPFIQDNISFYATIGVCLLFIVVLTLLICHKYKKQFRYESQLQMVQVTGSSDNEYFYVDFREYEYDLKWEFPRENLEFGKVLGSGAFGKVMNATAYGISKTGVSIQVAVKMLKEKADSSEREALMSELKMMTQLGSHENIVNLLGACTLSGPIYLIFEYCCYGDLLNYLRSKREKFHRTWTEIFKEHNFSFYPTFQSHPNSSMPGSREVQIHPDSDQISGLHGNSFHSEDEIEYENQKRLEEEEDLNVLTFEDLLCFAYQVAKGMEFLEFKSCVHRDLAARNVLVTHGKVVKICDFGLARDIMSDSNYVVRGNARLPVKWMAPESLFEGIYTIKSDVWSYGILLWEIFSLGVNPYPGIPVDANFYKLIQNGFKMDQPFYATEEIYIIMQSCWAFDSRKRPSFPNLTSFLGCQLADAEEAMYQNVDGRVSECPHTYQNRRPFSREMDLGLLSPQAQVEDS
Chain of PDGFRβ kinase (P09619 33-1106): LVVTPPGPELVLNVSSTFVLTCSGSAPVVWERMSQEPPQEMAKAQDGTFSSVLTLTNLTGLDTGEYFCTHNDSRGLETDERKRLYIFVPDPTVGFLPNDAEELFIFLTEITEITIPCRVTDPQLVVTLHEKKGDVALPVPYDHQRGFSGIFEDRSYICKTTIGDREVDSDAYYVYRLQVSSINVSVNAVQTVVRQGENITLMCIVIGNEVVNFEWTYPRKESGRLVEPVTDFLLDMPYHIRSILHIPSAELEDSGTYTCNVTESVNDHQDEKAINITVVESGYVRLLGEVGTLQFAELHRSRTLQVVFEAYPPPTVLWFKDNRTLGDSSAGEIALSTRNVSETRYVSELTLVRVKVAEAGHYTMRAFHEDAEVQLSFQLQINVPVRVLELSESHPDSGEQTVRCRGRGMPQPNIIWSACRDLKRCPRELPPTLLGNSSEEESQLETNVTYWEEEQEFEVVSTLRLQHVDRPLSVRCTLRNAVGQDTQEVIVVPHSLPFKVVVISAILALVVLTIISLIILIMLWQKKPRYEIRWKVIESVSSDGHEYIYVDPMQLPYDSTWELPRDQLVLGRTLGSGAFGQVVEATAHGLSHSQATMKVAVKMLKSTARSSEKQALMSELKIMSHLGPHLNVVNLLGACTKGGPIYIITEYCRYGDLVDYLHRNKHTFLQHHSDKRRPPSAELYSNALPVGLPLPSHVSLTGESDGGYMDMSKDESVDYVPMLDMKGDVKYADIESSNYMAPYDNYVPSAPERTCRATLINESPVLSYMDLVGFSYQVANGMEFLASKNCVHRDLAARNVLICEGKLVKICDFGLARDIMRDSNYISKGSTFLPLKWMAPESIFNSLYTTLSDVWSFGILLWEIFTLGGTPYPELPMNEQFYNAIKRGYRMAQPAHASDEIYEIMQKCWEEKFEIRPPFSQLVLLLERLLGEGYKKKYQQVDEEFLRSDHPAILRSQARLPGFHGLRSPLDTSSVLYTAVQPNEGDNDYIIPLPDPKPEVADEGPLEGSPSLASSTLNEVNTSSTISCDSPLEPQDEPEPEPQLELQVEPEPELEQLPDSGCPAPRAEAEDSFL
Chain of c-KIT kinase (P10721 26-976): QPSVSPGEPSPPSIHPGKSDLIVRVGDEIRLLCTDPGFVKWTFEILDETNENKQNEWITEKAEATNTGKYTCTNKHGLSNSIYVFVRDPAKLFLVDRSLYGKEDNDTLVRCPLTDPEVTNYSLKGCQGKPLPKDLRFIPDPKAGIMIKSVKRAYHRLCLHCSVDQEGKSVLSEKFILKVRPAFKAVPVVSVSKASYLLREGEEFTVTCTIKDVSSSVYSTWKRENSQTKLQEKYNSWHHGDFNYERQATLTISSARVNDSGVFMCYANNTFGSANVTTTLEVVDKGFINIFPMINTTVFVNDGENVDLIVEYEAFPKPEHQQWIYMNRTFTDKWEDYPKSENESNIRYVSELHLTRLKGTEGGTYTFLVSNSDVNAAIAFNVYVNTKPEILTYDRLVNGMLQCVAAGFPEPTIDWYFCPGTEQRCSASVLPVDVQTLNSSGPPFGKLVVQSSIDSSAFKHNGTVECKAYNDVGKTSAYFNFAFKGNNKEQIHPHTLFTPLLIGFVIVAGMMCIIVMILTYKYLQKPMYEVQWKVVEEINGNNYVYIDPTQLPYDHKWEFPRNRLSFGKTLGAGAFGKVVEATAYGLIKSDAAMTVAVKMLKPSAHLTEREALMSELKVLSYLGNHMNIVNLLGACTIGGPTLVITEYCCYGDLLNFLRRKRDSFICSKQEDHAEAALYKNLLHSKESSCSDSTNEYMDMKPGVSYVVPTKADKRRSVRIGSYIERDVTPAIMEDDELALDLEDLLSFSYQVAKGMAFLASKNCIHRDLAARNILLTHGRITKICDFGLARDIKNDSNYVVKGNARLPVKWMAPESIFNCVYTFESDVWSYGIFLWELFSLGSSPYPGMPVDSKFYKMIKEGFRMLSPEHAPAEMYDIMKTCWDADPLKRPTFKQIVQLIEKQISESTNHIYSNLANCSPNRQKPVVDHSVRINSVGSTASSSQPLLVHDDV

IC50 (PDGFRβ kinase) [µM] | IC50 (c-KIT kinase; bound) [µM] | IC50 (FLT3 kinase) [µM] | IC50 (c-KIT kinase; class symbol) [µM] | SMILES | IC50 [1] [µM] | IC50 [2] [µM] | IC50 [3] [µM] | IC50 [4] [µM]
 |  |  |  | COc1cnc2ccc(Nc3ccc(NCc4ccc(C(F)(F)F)nc4)nc3)c(C#N)c2n1 [Example 1, 3-methoxy-6-((6-(((6-(trifluoromethyl)pyridin-3-yl)methyl)amino)pyridin-3-yl)amino)quinoxaline-5-carbonitrile] | 1 to 10 | 1 to 10 | > 10 | > 10
 |  |  |  | COc1cnc2ccc(Nc3ccc(OCc4cccnc4)nc3)c(C#N)c2n1 [Example 6, 3-methoxy-6-((6-(pyridin-3-ylmethoxy)pyridin-3-yl)amino)quinoxaline-5-carbonitrile] | 1 to 10 | > 10 | > 10 | > 10
 |  |  |  | COc1cnc2ccc(Nc3ccc(OCc4cccnc4)c(OC)c3)c(C#N)c2n1 [Example 8, 3-methoxy-6-((3-methoxy-4-(pyridin-3-ylmethoxy)phenyl)amino)quinoxaline-5-carbonitrile] | 1 to 10 | > 10 | > 10 | > 10
> 1 |  |  |  | COc1ccc(COc2ccc(Oc3ccc4ncc(OC)nc4c3C#N)cc2OC)cc1 [Example 10, 3-methoxy-6-(3-methoxy-4-((4-methoxpenzyl)oxy)phenoxy)quinoxaline-5-carbonitrile] |  |  |  | 
 |  |  |  | COc1cnc2ccc(Nc3ccc(OC)c(OC)c3)c(C#N)c2n1 [Example 11, 6-((3,4-dimethoxyphenyl)amino)-3-methoxyquinoxaline-5-carbonitrile] | 1 to 10 | 1 to 10 | > 10 | > 10
 |  |  |  | COc1ccc(CNc2ccc(Nc3ccc4ncc(OC)nc4c3C#N)cc2OC)cc1 [Example 14, 3-methoxy-6-((3-methoxy-4-((4-methoxybenzyl)amino)phenyl)amino)quinoxaline-5-carbonitrile] | 1 to 10 | > 10 | > 10 | > 10
> 1 | > 1 | > 1 |  | COc1ccc(COc2ccc(Oc3ccc4ncc(OC)nc4c3C#N)cc2OC)cc1 [Example 26, 3-methoxy-6-(3-methoxy-4-((4-methoxybenzyl)oxy)phenoxy)quinoxaline-5-carbonitrile] |  |  |  | 
> 1 | > 1 | > 1 |  | CCOc1cc(Oc2ccc3ncc(OC)nc3c2C#N)ccc1OCc1ccc(OC)cc1 [Example 30, 6-(3-ethoxy-4-((4-methoxybenzyl)oxy)phenoxy)-3-methoxyquinoxaline-5-carbonitrile] |  |  |  | 
 |  |  |  | COc1cc(Nc2ccc3ncc(N4CCOCC4)nc3c2C#N)ccc1OCC1(C)COC1 [Example 41, 6-((3-methoxy-4-((3-methyloxetan-3-yl)methoxy)phenyl)amino)-3-morpholinoquinoxaline-5-carbonitrile] | 1 to 10 | 1 to 10 | > 10 | > 10
 |  |  |  | COc1cc(Nc2ccc3ncc(N4CCOCC4)nc3c2C#N)ccc1OCC1CCN(C)CC1 [Example 42, 6-((3-methoxy-4-((1-methylpiperidin-4-yl)methoxy)phenyl)amino)-3-morpholinoquinoxaline-5-carbonitrile] | 1 to 10 | 1 to 10 | 1 to 10 | > 10
> 1 |  | > 1 | < 0.1 | COc1cc(Nc2ccc3ncc(N4CCOCC4)nc3c2C#N)ccc1OCc1cccnc1 [Example 43, 6-((3-methoxy-4-(pyridin-3-ylmethoxy)phenyl)amino)-3-morpholinoquinoxaline-5-carbonitrile] |  |  |  | 
 |  |  |  | COc1cc(Nc2ccc3ncc(N4CCOCC4)nc3c2C#N)ccc1OCC1CCCC1 [Example 44, 6-((4-(cyclopentylmethoxy)-3-methoxyphenyl)amino)-3-morpholinoquinoxaline-5-carbonitrile] | 1 to 10 | 1 to 10 | 1 to 10 | > 10
 |  |  |  | CCOc1cc(Nc2ccc3ncc(N4CCOCC4)nc3c2C#N)ccc1OCc1ccncc1 [Example 47, 6-((3-ethoxy-4-(pyridin-4-ylmethoxy)phenyl)amino)-3-morpholinoquinoxaline-5-carbonitrile] | 1 to 10 | > 10 | 1 to 10 | > 10
> 1 |  | > 1 | < 0.1 | COc1cc(Nc2ccc3ncc(N4CCOCC4)nc3c2C#N)ccc1OCc1ccc(C)nc1 [Example 54, 6-((3-methoxy-4-((6-methylpyridin-3-yl)methoxy)phenyl)amino)-3-morpholinoquinoxaline-5-carbonitrile] |  |  |  | 
> 1 |  | > 1 | 0.3 to 1 | COc1cc(Nc2ccc3ncc(N4CCOCC4)nc3c2C#N)ccc1OCc1cnc(C)nc1 [Example 128, 6-((3-methoxy-4-((2-methylpyrimidin-5-yl)methoxy)phenyl)amino)-3-morpholinoquinoxaline-5-carbonitrile] |  |  |  | 
> 1 |  | > 1 | < 0.1 | COc1cc(Nc2ccc3ncc(N4CCOCC4)nc3c2C#N)ccc1OCc1cnn(C2CC2)c1 [Example 134, 6-((4-((1-cyclopropyl-1H-pyrazol-4-yl)methoxy)-3-methoxy-phenyl)amino)-3-morpholinoquinoxaline-5-carbonitrile] |  |  |  | 
